The results in this text go back to patent US10654828B2 (NOVARTIS AG, priority 2017, dated 2020).

One assay relates to AKT. As to the kind of experiment: AKT activation: Phospho-AKT (Ser473) antibody staining in reporter cells. It counts as cell-based. The settings on record: U2OS GFP-FoxO3a H212R cells, serum starved overnight, compound 30 minutes, total cellular intensity of Phospho-AKT (Ser473) staining, DMSO control 0%. On the procedure:
(§1) Phosphorylation of AKT on S473 and FoxO3a nuclear to cytoplasmic translocation were used as readouts of PI3K/Akt/mTOR pathway activation downstream of growth factor signaling.
(§2) Reporter cell line. U2OS GFP-FoxO3a H212R reporter cell line was established by transducing U2OS cells with the retroviral plasmid pLEGFP-C1 containing FoxO3a H212R transgene and selecting for G418 resistant clones.
(§3) Reporter assay. U2OS GFP-FoxO3a H212R cells were plated in 384-well plates at 4000 cells per well in 30 microliters of McCoy's 5 A medium containing 10% FBS. On day 1 the cells were washed with serum free medium and serum starved overnight. On day 2 the cells were treated with different doses of the compounds for 30 minutes, fixed with 4% Paraformaldehyde for 1 hour and stained with Phospho-AKT (Ser473) antibody (Cell Signaling Technology, catalog #4060) overnight at 4 degrees Celsius. After nuclei staining with Hoechst 33342 (Life Technologies, catalog # H3570) the plates were imaged with InCell 2000 (GE Healthcare Bio-Sciences). FoxO3a inhibition activity is calculated as the ratio of nuclear to cytosolic GFP intensity in percent. AKT activation is measured as the total cellular intensity of Phospho-AKT antibody staining in percent. DMSO control is set as 0% activity.

The test system of a further assay is FoxO3a. The assay can be described thus: FoxO3a inhibition: GFP-FoxO3a nuclear to cytoplasmic translocation reporter assay. It counts as cell-based. The settings on record: U2OS GFP-FoxO3a H212R cells, serum starved overnight, compound 30 minutes, ratio of nuclear to cytosolic GFP intensity, DMSO control 0%, read-out: FoxO AC50. On the procedure:
as §1, §2, §3
On the technique in general: A reporter such as luciferase makes a cellular process visible.

Read-outs that look alike come from different tables or passages of the source.

On to `Cc1cc(C(N)=O)nn1-c1ccc2c(ccn2Cc2ccc(-c3ccc(C(=O)NCCN4CCOCC4)cc3)cc2)c1` [Example 1-38, 5-methyl-1-(1-((4′-((2-morpholinoethyl)carbamoyl)-[1,1′-biphenyl]-4-yl)methyl)-1H-indol-5-yl)-1H-pyrazole-3-carboxamide], for which the AC50 in the assay with AKT (Homo sapiens, U2OS, 0.5 h) came out at 240 nM; with FoxO3a (Homo sapiens, U2OS, 0.5 h) it was 78 nM.

Regarding `Cc1cc(C(N)=O)nn1-c1ccc2c(ccn2Cc2ccc(-c3ccc4cn(C)nc4c3)cc2)c1` [Example 1-10, 5-methyl-1-(1-(4-(2-methyl-2H-indazol-6-yl)benzyl)-1H-indol-5-yl)-1H-pyrazole-3-carboxamide], the concentration at half-maximal activity (AC50) in the assay on AKT (Homo sapiens, U2OS, 0.5 h) was determined as 234 nM; with FoxO3a (Homo sapiens, U2OS, 0.5 h), 72 nM.

In the case of `Cc1cc(C(N)=O)nn1-c1ccc2c(ccn2Cc2ccc(-c3cccc(S(N)(=O)=O)c3)cc2)c1` [Example 1-20, 5-methyl-1-(1-((3′-sulfamoyl-[1,1′-biphenyl]-4-yl)methyl)-1H-indol-5-yl)-1H-pyrazole-3-carboxamide], the AC50 with AKT (Homo sapiens, U2OS, 0.5 h) is greater than 10000 nM; with FoxO3a (Homo sapiens, U2OS, 0.5 h), 126 nM.

`Cc1cc(C(N)=O)nn1-c1ccc2c(ccn2Cc2ccc(-c3ccc(C(=O)N(C)C)cc3)cc2)c1` [Example 1-35, 1-(1-((4′-(dimethylcarbamoyl)-[1,1′-biphenyl]-4-yl)methyl)-1H-indol-5-yl)-5-methyl-1H-pyrazole-3-carboxamide]: the AC50 was 217 nM in the assay on AKT (Homo sapiens, U2OS, 0.5 h) and 60 nM in the assay with FoxO3a (Homo sapiens, U2OS, 0.5 h).

Regarding `Cc1cc(C(N)=O)nn1-c1ccc2c(ccn2Cc2ccc(C3=CCN(C)CC3)cc2)c1` [Example 1-1, 5-methyl-1-(1-(4-(1-methyl-1,2,3,6-tetrahydropyridin-4-yl)benzyl)-1H-indol-5-yl)-1H-pyrazole-3-carboxamide], the AC50 in the assay with AKT (Homo sapiens, U2OS, 0.5 h) is 138 nM; in the assay with FoxO3a (Homo sapiens, U2OS, 0.5 h), 53 nM.

In the case of `Cc1cc(C(N)=O)nn1-c1ccc2c(ccn2Cc2ccc(C3=CCN4CCCC3C4)cc2)c1` (single isomer, unassigned) [Example 13, 1-(1-(4-(1-azabicyclo[3.3.1]non-3-en-4-yl)benzyl)-1H-indol-5-yl)-5-methyl-1H-pyrazole-3-carboxamide], the concentration at half-maximal activity (AC50) stood at 1530 nM with AKT (Homo sapiens, U2OS, 0.5 h) and 437 nM in the assay with FoxO3a (Homo sapiens, U2OS, 0.5 h).

`Cc1cc(C(N)=O)nn1-c1ccc2c(ccn2Cc2ccc(C3=CCN(C(=O)CCCN(C)C)CC3)cc2)c1` [Example 10]: the AC50 with AKT (Homo sapiens, U2OS, 0.5 h) was determined as 512 nM; in the assay with FoxO3a (Homo sapiens, U2OS, 0.5 h), 189 nM.

Turning to `Cc1cc(C(N)=O)nn1-c1ccc2c(ccn2Cc2ccc(-c3ccc(F)cc3)cc2)c1` [Example 1-27, 1-(1-((4′-fluoro-[1,1′-biphenyl]-4-yl)methyl)-1H-indol-5-yl)-5-methyl-1H-pyrazole-3-carboxamide], the AC50 is greater than 10000 nM in the assay on AKT (Homo sapiens, U2OS, 0.5 h) and 229 nM with FoxO3a (Homo sapiens, U2OS, 0.5 h).

In the case of `Cc1cc(C(N)=O)nn1-c1ccc2c(ccn2Cc2ccc(-c3cnc(N(C)C)nc3)cc2)c1` [Example 1-36, 1-(1-(4-(2-(dimethylamino)pyrimidin-5-yl)benzyl)-1H-indol-5-yl)-5-methyl-1H-pyrazole-3-carboxamide], the AC50 was 1050 nM in the assay with AKT (Homo sapiens, U2OS, 0.5 h) and 477 nM in the assay with FoxO3a (Homo sapiens, U2OS, 0.5 h).

Regarding `Cc1cc(C(N)=O)nn1-c1ccc2c(ccn2Cc2ccc(C3CCCN(C)CC3)cc2)c1` (single isomer, unassigned) [Example 29-1, 5-methyl-1-(1-(4-(1-methylazepan-4-yl)benzyl)-1H-indol-5-yl)-1H-pyrazole-3-carboxamide], the AC50 in the assay on AKT (Homo sapiens, U2OS, 0.5 h) was 1690 nM; with FoxO3a (Homo sapiens, U2OS, 0.5 h), 483 nM.

In the case of `Cc1cc(C(N)=O)nn1-c1ccc2c(ccn2Cc2ccc(C3CCCNC3)cc2)c1` (centres unmarked) [Example 2-4, 5-methyl-1-(1-(4-(piperidin-3-yl)benzyl)-1H-indol-5-yl)-1H-pyrazole-3-carboxamide], the half-maximal activity concentration (AC50) was determined as 1630 nM in the assay with AKT (Homo sapiens, U2OS, 0.5 h) and 429 nM with FoxO3a (Homo sapiens, U2OS, 0.5 h).

On to `Cc1cc(C(N)=O)nn1-c1ccc2c(ccn2Cc2ccc(N3CCN(C)CC3)cc2)c1` [Example 11-2, 5-methyl-1-(1-(4-(4-methylpiperazin-1-yl)benzyl)-1H-indol-5-yl)-1H-pyrazole-3-carboxamide], for which the AC50 with AKT (Homo sapiens, U2OS, 0.5 h) is 1060 nM; in the assay with FoxO3a (Homo sapiens, U2OS, 0.5 h) it was 341 nM.

For the compound `Cc1cc(C(N)=O)nn1-c1ccc2c(c1)c(C1=CCNCC1)cn2Cc1ccc(-c2ccc(S(C)(=O)=O)cc2)cc1` [Example 21, 5-methyl-1-(1-((4′-(methylsulfonyl)-[1,1′-biphenyl]-4-yl)methyl)-3-(1,2,3,6-tetrahydropyridin-4-yl)-1H-indol-5-yl)-1H-pyrazole-3-carboxamide], the concentration at half-maximal activity (AC50) with AKT (Homo sapiens, U2OS, 0.5 h) was 1650 nM; in the assay on FoxO3a (Homo sapiens, U2OS, 0.5 h), 598 nM.

With `Cc1cn(Cc2ccc([C@@H]3C[C@@H]4CN(C)C[C@@H]4C3)cc2)c2ccc(-n3nc(C(N)=O)cc3C)cc12` [Example 43, 5-Methyl-1-(3-methyl-1-(4-((3aR,5r,6aS)-2-methyloctahydrocyclopenta[c]pyrrol-5-yl)benzyl)-1H-indol-5-yl)-1H-pyrazole-3-carboxamide], the AC50 with AKT (Homo sapiens, U2OS, 0.5 h) is 740 nM; with FoxO3a (Homo sapiens, U2OS, 0.5 h), 215 nM.

Regarding `Cc1cc(C(N)=O)nn1-c1ccc2c(ccn2Cc2ccc(-c3cnc4c(c3)OCCN4C)cc2)c1` [Example 1-9, 5-methyl-1-(1-(4-(4-methyl-3,4-dihydro-2H-pyrido[3,2-b][1,4]oxazin-7-yl)benzyl)-1H-indol-5-yl)-1H-pyrazole-3-carboxamide], the AC50 with AKT (Homo sapiens, U2OS, 0.5 h) came out at 318 nM; in the assay with FoxO3a (Homo sapiens, U2OS, 0.5 h), 109 nM.

As for `Cc1cc(C(N)=O)nn1-c1ccc2c(ccn2Cc2ccc(-c3ccc(CN4CCOCC4)cc3)cc2)c1` [Example 1-37, 5-methyl-1-(1-((4′-(morpholinomethyl)-[1,1′-biphenyl]-4-yl)methyl)-1H-indol-5-yl)-1H-pyrazole-3-carboxamide], the AC50 in the assay on AKT (Homo sapiens, U2OS, 0.5 h) is 206 nM; in the assay on FoxO3a (Homo sapiens, U2OS, 0.5 h), 75 nM.

As for `Cc1cc(C(N)=O)nn1-c1ccc2c(ccn2Cc2ccc(CC3CN(C)C3)cc2)c1` [Example 32, 5-methyl-1-(1-(4-((1-methylazetidin-3-yl)methyl)benzyl)-1H-indol-5-yl)-1H-pyrazole-3-carboxamide], the half-maximal activity concentration (AC50) in the assay on AKT (Homo sapiens, U2OS, 0.5 h) amounted to 4360 nM; in the assay with FoxO3a (Homo sapiens, U2OS, 0.5 h), 1040 nM.

In the case of `Cc1cc(C(N)=O)nn1-c1ccc2c(ccn2Cc2ccc(NC3CCN(C)C3)cc2)c1` (single isomer, unassigned) [Example 37-2, 5-methyl-1-(1-(4-((1-methylpyrrolidin-3-yl)amino)benzyl)-1H-indol-5-yl)-1H-pyrazole-3-carboxamide], the AC50 with AKT was determined as 4080 nM; in the assay on FoxO3a, 928 nM.

Consider `Cc1cc(C(N)=O)nn1-c1ccc2c(ccn2Cc2ccc(C3=CCN(C)CC3C)cc2)c1` (centres unmarked) [Example 17-1, 1-(1-(4-(1,3-dimethyl-1,2,3,6-tetrahydropyridin-4-yl)benzyl)-1H-indol-5-yl)-5-methyl-1H-pyrazole-3-carboxamide], for which the AC50 in the assay with AKT (Homo sapiens, U2OS, 0.5 h) came to 460 nM; in the assay with FoxO3a (Homo sapiens, U2OS, 0.5 h) it was 102 nM.

For the compound `Cc1cc(C(N)=O)nn1-c1ccc2c(ccn2Cc2ccc([C@@]34C[C@@H]3CN(C)C4)cc2)c1` [Example 33, 5-methyl-1-(1-(4-((1R,5S)-3-methyl-3-azabicyclo[3.1.0]hexan-1-yl)benzyl)-1H-indol-5-yl)-1H-pyrazole-3-carboxamide], the AC50 in the assay with AKT (Homo sapiens, U2OS, 0.5 h) amounted to 2810 nM; in the assay with FoxO3a (Homo sapiens, U2OS, 0.5 h), 383 nM.

With `Cc1cc(C(N)=O)nn1-c1ccc2c(ccn2Cc2ccc(-c3ccc4c(c3)CCNC4=O)cc2)c1` [Example 1-25, 5-methyl-1-(1-(4-(1-oxo-1,2,3,4-tetrahydroisoquinolin-6-yl)benzyl)-1H-indol-5-yl)-1H-pyrazole-3-carboxamide], the AC50 in the assay with AKT (Homo sapiens, U2OS, 0.5 h) was 197 nM; in the assay on FoxO3a (Homo sapiens, U2OS, 0.5 h) it was 56 nM.

Consider `Cc1cc(C(N)=O)nn1-c1ccc2c(ccn2Cc2ccc(C3CCC4(CC3)CN(C)C4)cc2)c1` [Example 16-4, 5-methyl-1-(1-(4-(2-methyl-2-azaspiro[3.5]nonan-7-yl)benzyl)-1H-indol-5-yl)-1H-pyrazole-3-carboxamide], for which the AC50 turned out to be 756 nM in the assay with AKT (Homo sapiens, U2OS, 0.5 h) and 186 nM in the assay with FoxO3a (Homo sapiens, U2OS, 0.5 h).

`Cc1cc(C(N)=O)nn1-c1ccc2c(ccn2Cc2ccc(-c3ccc4cnccc4c3)cc2)c1` [Example 1-18, 1-(1-(4-(isoquinolin-6-yl)benzyl)-1H-indol-5-yl)-5-methyl-1H-pyrazole-3-carboxamide]: the AC50 in the assay on AKT (Homo sapiens, U2OS, 0.5 h) turned out to be 352 nM; in the assay on FoxO3a (Homo sapiens, U2OS, 0.5 h) it was 95 nM.

In the case of `Cc1cc(C(N)=O)nn1-c1ccc2c(ccn2Cc2ccc([C@H]3C[C@@H]4CN(C)C[C@@H]4C3)cc2)c1` [Example 26-2, 5-methyl-1-(1-(4-((3aR,5s,6aS)-2-methyloctahydrocyclopenta[c]pyrrol-5-yl)benzyl)-1H-indol-5-yl)-1H-pyrazole-3-carboxamide], the AC50 came out at 362 nM in the assay on AKT (Homo sapiens, U2OS, 0.5 h) and 80 nM in the assay with FoxO3a (Homo sapiens, U2OS, 0.5 h).

For `Cc1cc(C(N)=O)nn1-c1ccc2c(ccn2Cc2ccc(-c3cnn(C)c3)cc2)c1` [Example 1-19, 5-methyl-1-(1-(4-(1-methyl-1H-pyrazol-4-yl)benzyl)-1H-indol-5-yl)-1H-pyrazole-3-carboxamide], the AC50 amounted to 500 nM in the assay on AKT (Homo sapiens, U2OS, 0.5 h) and 140 nM in the assay on FoxO3a (Homo sapiens, U2OS, 0.5 h).

For orientation: AC50 means the midpoint of the concentration-response curve, whichever way the signal moves.
